Laboratory results published in US20160000849A1, “COMPOSITION FOR REMEDYING OR TREATING RHEUMATOID ARTHRITIS AND OSTEOARTHRITIS” (HANPOONG PHARM & FOODS CO., LTD., priority 2013, published 2016).

Tested on: normal 293T cells, rat chondrocytes and human chondrocytes (HTB-94)
Description: The stabilities of glucosamine-HCl, glucosamine-sulfate, celecoxib and HPL-1 were analyzed by an MTT assay using normal 293T cells, rat chondrocytes and human chondrocytes (HTB-94).

SMILES	concentration at which cytotoxicity was observed (human, rat)	cytotoxicity
Cc1ccc(-c2cc(C(F)(F)F)nn2-c2ccc(S(N)(=O)=O)cc2)cc1 [celecoxib]	≥ 10 µg/mL	
Cl.N[C@H]1C(O)O[C@H](CO)[C@@H](O)[C@@H]1O (stereo partly drawn) [glucosamine-HCl]		no cytotoxicity was observed
N[C@H]1C(O)O[C@H](CO)[C@@H](O)[C@@H]1O.O=S(=O)(O)O (stereo partly drawn) [glucosamine-sulfate]		no cytotoxicity was observed
